Measured values taken from PMC10879502, “Linking ATP and allosteric sites to achieve superadditive binding with bivalent EGFR kinase inhibitors” (Communications Chemistry, 2024).

Columns and labels:
[1] = biological target: T1, EGFR WT, cytoplasmic domain (669–1210) (Homo sapiens, UniProt P00533); assay: Time-dependent kinase inhibition assay (Sox-based substrate); format: biochemical; conditions: enzyme 2.0 nM, 1 mM ATP
T1 construct: EGFR WT, cytoplasmic domain (669–1210), GST-tagged, Carna; purchased Carna 08-115
Experimental: (§1) Biochemical assays were performed with commercially available EGFR WT, cytoplasmic domain (669–1210), GST-tagged, Carna (Cat#/Lot#: 08-115/21CBS-0127H), EGFR [L858R], cytoplasmic domain (668-end), GST-tagged, SignalChem (Cat#/Lot#: E10-122BG/D2411-4), EGFR [T790M/L858R] cytoplasmic domain (669–1210), GST-tagged, Carna (Cat#/Lot#: 08-510/12CBS-0765M). […] BSA was not included in this experiment to prevent interference with irreversible inhibitor characterization via off-target binding. All reactions were run for 240 min at 30 °C. Time-dependent fluorescence from the Sox-based substrate was monitored in PerkinElmer ProxiPlate-384 Plus, white shallow well microplates (Cat. #6008280) Biotek Synergy Neo 2 microplate reader with excitation (360 nm) and emission (485 nm) wavelengths. 4 was dosed between 0 and 10 µM in 24-point curves with 1.5-fold dilutions. Fluorescence, determined with identical reactions but lacking purified enzyme or crude cell lysate was subtracted from the total fluorescence signal for each time point, with both determined in duplicate, to obtain corrected relative fluorescence units (RFU). Corrected RFU values then were plotted vs. time and the reaction velocity for the first ~40 min (initial reaction rates) was determined from the slope using GraphPad Prism (La Jolla, CA) with units of RFU/min.

[2] = biological target: T2, EGFR [L858R], cytoplasmic domain (668-end) (Homo sapiens, UniProt P00533, L858R); assay: as above; format: biochemical; conditions: LR, enzyme 1.0 nM, 1 mM ATP
T2 construct: EGFR [L858R], cytoplasmic domain (668-end), GST-tagged, SignalChem; purchased SignalChem E10-122BG
Experimental: as §1

[3] = biological target: T3, EGFR [T790M/L858R] cytoplasmic domain (669–1210) (Homo sapiens, UniProt P00533, L858R/T790M); assay: as above; format: biochemical; conditions: LRTM, enzyme 2.0 nM, 1 mM ATP
T3 construct: EGFR [T790M/L858R] cytoplasmic domain (669–1210), GST-tagged, Carna; purchased Carna 08-510
Experimental: as §1

[4] = biological target: T4, ABL1(F317L)-phosphorylated (Homo sapiens, UniProt P00519, F317L); assay: KINOMEscan; format: binding; conditions: 1 μM
T4 construct: purchased Eurofins DiscoverX Corporation

[5] = biological target: T5, BMPR2 (Homo sapiens, UniProt Q13873); assay: KINOMEscan; format: binding; conditions: 1 μM
T5 construct: purchased Eurofins DiscoverX Corporation (KINOMEscan)
T5 sequence (Q13873 27-1038): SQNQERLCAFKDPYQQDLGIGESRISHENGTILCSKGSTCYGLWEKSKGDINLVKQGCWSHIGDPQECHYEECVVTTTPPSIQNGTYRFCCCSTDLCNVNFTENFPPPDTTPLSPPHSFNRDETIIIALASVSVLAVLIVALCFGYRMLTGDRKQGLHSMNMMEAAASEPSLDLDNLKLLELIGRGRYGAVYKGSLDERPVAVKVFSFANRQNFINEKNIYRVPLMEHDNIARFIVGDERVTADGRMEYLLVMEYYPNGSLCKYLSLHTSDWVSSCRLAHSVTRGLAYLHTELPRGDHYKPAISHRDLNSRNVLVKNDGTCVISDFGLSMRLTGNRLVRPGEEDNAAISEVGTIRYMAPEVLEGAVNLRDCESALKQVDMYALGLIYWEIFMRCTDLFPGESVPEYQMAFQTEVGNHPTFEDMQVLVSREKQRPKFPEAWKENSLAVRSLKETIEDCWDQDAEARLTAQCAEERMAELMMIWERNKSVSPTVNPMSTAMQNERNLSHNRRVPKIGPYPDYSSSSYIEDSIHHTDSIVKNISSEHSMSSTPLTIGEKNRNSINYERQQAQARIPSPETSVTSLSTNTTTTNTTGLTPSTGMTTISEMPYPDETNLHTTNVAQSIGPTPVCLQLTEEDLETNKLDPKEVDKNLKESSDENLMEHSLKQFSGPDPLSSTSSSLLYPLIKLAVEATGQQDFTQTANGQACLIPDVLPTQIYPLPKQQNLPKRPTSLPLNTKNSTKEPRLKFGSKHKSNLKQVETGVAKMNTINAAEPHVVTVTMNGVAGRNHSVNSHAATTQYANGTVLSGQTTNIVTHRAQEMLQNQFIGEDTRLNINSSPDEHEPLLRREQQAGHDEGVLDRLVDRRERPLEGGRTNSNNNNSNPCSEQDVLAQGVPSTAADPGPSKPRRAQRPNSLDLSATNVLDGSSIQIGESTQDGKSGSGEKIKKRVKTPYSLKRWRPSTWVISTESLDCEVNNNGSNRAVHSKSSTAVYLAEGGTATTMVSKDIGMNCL

[6] = biological target: T6, CAMK2A (Homo sapiens, UniProt Q9UQM7); assay: KINOMEscan; format: binding; conditions: 1 μM
T6 construct: purchased Eurofins DiscoverX Corporation (KINOMEscan)

[7] = biological target: CDK4 (Homo sapiens, UniProt P11802); assay: KINOMEscan; format: binding; conditions: 1 μM
[8] = biological target: T7, DCAMKL1 (Homo sapiens, UniProt O15075); assay: KINOMEscan; format: binding; conditions: 1 μM
T7 construct: purchased Eurofins DiscoverX Corporation

[9] = biological target: T8, DYRK2 (Homo sapiens, UniProt Q92630); assay: KINOMEscan; format: binding; conditions: 1 μM
T8 construct: purchased Eurofins DiscoverX Corporation

[10] = biological target: EGFR(L858R) (Homo sapiens, UniProt P00533, L858R); assay: KINOMEscan; format: binding; conditions: 1 μM
[11] = biological target: ERBB3 (Homo sapiens, UniProt P21860); assay: KINOMEscan; format: binding; conditions: 1 μM
[12] = biological target: T9, HIPK3 (Homo sapiens, UniProt Q9H422); assay: KINOMEscan; format: binding; conditions: 1 μM
T9 construct: purchased Eurofins DiscoverX Corporation

[13] = biological target: T10, JAK2(JH1domain-catalytic) (Homo sapiens, UniProt O60674); assay: KINOMEscan; format: binding; conditions: 1 μM
T10 construct: JAK2(JH1domain-catalytic); purchased Eurofins DiscoverX (KINOMEscan)
T10 sequence (O60674 849-1124 limits assumed): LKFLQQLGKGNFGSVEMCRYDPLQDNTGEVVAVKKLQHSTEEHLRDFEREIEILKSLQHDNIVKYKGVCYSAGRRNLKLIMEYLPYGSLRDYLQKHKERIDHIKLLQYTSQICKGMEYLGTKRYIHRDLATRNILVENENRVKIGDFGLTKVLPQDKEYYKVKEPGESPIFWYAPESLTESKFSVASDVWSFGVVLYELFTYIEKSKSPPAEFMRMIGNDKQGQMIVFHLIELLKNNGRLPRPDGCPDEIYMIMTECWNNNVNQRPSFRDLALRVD

[14] = biological target: T11, KIT(D816H) (Homo sapiens, UniProt P10721, D816H); assay: KINOMEscan; format: binding; conditions: 1 μM
T11 construct: purchased Eurofins DiscoverX (KINOMEscan)

[15] = biological target: T12, LRRK2 (Homo sapiens, UniProt Q5S007); assay: KINOMEscan; format: binding; conditions: 1 μM
T12 construct: purchased Eurofins DiscoverX Corporation

[16] = biological target: T13, MAP4K3 (Homo sapiens, UniProt Q8IVH8); assay: KINOMEscan; format: binding; conditions: 1 μM
T13 construct: purchased Eurofins DiscoverX Corporation
T13 sequence (Q8IVH8 whole entry): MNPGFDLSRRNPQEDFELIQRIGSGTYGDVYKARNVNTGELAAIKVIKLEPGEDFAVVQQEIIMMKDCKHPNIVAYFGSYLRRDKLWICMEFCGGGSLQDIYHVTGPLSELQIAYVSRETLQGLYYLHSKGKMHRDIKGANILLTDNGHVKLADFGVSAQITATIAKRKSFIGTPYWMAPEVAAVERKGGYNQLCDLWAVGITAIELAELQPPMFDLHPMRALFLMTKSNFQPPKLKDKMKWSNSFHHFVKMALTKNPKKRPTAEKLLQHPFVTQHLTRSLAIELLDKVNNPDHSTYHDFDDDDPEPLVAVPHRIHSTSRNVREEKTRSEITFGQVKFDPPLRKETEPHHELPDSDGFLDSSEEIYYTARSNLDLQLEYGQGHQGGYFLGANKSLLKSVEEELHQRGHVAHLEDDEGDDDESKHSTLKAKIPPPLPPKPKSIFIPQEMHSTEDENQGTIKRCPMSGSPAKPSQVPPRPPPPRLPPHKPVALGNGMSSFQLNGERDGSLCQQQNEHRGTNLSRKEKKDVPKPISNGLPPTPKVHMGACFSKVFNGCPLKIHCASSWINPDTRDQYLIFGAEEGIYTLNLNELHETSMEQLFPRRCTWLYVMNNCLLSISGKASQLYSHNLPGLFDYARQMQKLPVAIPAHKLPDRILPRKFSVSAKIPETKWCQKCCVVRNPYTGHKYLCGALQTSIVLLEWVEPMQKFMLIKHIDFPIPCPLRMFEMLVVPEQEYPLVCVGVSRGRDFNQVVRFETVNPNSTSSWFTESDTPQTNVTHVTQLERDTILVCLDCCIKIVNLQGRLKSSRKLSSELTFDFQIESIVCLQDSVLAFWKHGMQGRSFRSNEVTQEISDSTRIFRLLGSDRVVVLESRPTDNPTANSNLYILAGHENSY

[17] = biological target: p38-delta (Homo sapiens, UniProt O15264); assay: KINOMEscan; format: binding; conditions: 1 μM
p38-delta, sequence (O15264 whole entry): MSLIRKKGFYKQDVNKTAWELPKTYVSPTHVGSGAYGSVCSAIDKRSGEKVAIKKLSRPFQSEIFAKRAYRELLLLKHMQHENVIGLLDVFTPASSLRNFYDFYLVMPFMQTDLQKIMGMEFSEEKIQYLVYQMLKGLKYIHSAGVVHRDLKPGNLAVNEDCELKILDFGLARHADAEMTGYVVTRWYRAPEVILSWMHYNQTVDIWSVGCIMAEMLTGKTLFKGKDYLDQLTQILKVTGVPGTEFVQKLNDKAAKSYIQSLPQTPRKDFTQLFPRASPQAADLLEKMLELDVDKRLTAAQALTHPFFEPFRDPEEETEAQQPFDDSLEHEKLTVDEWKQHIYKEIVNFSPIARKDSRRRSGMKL

[18] = biological target: PAK6 (Homo sapiens, UniProt Q9NQU5); assay: KINOMEscan; format: binding; conditions: 1 μM
[19] = biological target: PIK3CA(I800L) (Homo sapiens, UniProt P42336, I800L); assay: KINOMEscan; format: binding; conditions: 1 μM
[20] = biological target: PIK3CD (Homo sapiens, UniProt O00329); assay: KINOMEscan; format: binding; conditions: 1 μM
PIK3CD, sequence (O00329 whole entry): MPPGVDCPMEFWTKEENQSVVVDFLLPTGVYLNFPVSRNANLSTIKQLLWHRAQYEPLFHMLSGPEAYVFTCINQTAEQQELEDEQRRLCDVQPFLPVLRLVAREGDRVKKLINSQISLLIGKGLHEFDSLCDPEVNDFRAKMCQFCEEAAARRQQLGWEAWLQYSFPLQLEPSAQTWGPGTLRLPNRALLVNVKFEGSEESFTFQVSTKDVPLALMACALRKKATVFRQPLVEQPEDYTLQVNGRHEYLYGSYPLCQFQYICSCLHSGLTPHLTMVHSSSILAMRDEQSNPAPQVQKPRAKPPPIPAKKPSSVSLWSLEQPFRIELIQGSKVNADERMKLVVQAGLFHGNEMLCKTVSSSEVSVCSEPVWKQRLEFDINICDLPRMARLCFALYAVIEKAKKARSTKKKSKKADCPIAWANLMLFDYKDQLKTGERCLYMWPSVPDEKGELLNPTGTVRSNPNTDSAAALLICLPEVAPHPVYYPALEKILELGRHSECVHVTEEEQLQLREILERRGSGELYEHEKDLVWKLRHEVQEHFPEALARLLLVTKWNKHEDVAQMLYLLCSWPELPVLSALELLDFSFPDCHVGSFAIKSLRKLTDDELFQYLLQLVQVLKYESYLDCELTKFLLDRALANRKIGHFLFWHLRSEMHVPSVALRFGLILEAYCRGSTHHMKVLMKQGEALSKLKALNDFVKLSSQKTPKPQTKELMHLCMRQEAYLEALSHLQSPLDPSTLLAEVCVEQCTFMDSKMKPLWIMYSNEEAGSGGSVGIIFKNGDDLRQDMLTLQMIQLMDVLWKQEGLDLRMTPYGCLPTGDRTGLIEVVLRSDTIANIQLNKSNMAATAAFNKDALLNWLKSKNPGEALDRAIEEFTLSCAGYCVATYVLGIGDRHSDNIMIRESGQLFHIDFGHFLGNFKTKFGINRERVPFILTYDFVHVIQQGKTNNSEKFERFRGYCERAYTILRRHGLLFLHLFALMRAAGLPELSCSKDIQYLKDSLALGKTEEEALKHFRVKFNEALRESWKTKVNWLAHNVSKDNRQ

[21] = biological target: PIKFYVE (Homo sapiens, UniProt Q9Y2I7); assay: KINOMEscan; format: binding; conditions: 1 μM
[22] = biological target: PKAC-beta (Homo sapiens, UniProt P22694); assay: KINOMEscan; format: binding; conditions: 1 μM
[23] = biological target: PKNB(M.tuberculosis) (Mycobacterium tuberculosis, UniProt P9WI81); assay: KINOMEscan; format: binding; conditions: 1 μM
PKNB(M.tuberculosis), sequence (P9WI81 whole entry): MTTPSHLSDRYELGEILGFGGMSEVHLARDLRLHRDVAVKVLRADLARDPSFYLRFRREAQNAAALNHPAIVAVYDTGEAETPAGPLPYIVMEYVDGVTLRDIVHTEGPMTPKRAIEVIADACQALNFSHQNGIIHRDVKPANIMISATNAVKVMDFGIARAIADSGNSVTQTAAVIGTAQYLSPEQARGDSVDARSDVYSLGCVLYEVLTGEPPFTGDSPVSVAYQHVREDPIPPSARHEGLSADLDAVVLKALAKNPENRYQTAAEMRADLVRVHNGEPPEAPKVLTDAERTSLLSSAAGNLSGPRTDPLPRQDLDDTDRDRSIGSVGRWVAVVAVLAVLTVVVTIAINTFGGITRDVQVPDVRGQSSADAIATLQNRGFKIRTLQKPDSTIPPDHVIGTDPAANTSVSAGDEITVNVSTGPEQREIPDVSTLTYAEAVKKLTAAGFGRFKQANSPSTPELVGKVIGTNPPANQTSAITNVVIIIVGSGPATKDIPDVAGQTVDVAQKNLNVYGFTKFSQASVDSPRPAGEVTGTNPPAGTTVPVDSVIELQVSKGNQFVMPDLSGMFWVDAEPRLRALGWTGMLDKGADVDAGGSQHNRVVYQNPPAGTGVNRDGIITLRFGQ

[24] = biological target: STK16 (Homo sapiens, UniProt O75716); assay: KINOMEscan; format: binding; conditions: 1 μM
STK16, sequence (O75716 whole entry): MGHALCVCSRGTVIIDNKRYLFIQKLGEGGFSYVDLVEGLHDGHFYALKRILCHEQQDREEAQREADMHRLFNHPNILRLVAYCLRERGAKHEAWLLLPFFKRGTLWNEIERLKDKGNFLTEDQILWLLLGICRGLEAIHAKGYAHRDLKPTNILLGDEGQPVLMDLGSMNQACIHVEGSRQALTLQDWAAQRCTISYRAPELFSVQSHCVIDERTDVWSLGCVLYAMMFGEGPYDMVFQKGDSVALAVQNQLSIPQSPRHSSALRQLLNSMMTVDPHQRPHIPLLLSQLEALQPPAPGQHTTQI

[25] = biological target: STK35 (Homo sapiens, UniProt Q8TDR2); assay: KINOMEscan; format: binding; conditions: 1 μM
[26] = biological target: T14, TGFBR2 (Homo sapiens, UniProt P37173); assay: KINOMEscan; format: binding; conditions: 1 μM
T14 construct: purchased Eurofins DiscoverX Corporation

[27] = biological target: T15, TNK2 (Homo sapiens, UniProt Q07912); assay: KINOMEscan; format: binding; conditions: 1 μM
T15 construct: purchased Eurofins DiscoverX Corporation

[28] = biological target: T16, TRKB (Homo sapiens, UniProt Q16620); assay: KINOMEscan; format: binding; conditions: 1 μM
T16 construct: purchased Eurofins DiscoverX Corporation

[29] = biological target: T17, TSSK3 (Homo sapiens, UniProt Q96PN8); assay: KINOMEscan; format: binding; conditions: 1 μM
T17 construct: purchased Eurofins DiscoverX Corporation
T17 sequence (Q96PN8 whole entry): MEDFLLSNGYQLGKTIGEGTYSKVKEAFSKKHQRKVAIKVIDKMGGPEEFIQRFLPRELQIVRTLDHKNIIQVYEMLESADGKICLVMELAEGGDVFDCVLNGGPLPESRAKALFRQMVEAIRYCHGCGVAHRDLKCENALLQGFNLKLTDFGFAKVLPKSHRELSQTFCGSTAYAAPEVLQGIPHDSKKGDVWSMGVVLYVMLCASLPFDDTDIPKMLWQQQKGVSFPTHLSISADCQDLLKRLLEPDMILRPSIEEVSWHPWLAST

Structure (SMILES): C=CC(=O)Nc1ccc(OC)c(Nc2cc(-c3[nH]c(CC)nc3-c3cccc(NC(=O)c4cccc5c4NC(=O)c4ccccc4N5)c3)ccn2)c1 [Compound 4]
- Ki [1]: 1200 ± 40 nM
- kinact [1]: 0.003 s⁻¹
- kinact/KI [1]: 2500 ± 30 M⁻¹ s⁻¹
- Ki [2]: 610 ± 30 nM
- kinact [2]: 0.00867 s⁻¹
- kinact/KI [2]: 14100 ± 300 M⁻¹ s⁻¹
- Ki [3]: 1600 ± 100 nM
- kinact [3]: 0.00167 s⁻¹
- kinact/KI [3]: 1070 ± 40 M⁻¹ s⁻¹
- POC [4]: 85% of control
- POC [5]: 88% of control
- POC [6]: 65% of control
- POC [7]: 100% of control
- POC [8]: 100% of control
- POC [9]: 75% of control
- POC [10]: 5% of control
- POC [11]: 84% of control
- POC [12]: 100% of control
- POC [13]: 86% of control
- POC [14]: 39% of control
- POC [15]: 93% of control
- POC [16]: 9.5% of control
- POC [17]: 100% of control
- POC [18]: 93% of control
- POC [19]: 100% of control
- POC [20]: 71% of control
- POC [21]: 94% of control
- POC [22]: 98% of control
- POC [23]: 97% of control
- POC [24]: 100% of control
- POC [25]: 69% of control
- POC [26]: 75% of control
- POC [27]: 3.8% of control
- POC [28]: 100% of control
- POC [29]: 100% of control
